{"source": "patent US20240165259A1", "about": "“BIOORTHOGONAL REACTION SUITABLE FOR CLICK/UNCLICK APPLICATIONS” (DANA-FARBER CANCER INSTITUTE, INC., priority 2021, published 2024)", "molecular_target": "T1, lysozyme-COT 15 (Gallus gallus, UniProt P00698)", "T1 construct": "purchased", "T1 sequence (P00698 19-147)": "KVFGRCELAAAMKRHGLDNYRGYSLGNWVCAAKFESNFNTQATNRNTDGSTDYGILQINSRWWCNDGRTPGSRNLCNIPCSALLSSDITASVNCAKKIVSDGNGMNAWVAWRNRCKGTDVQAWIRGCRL", "experiment": "In vitro protein labeling of lysozyme-COT 15 with hydroxylamine 13 (in-gel fluorescence, intact MS)", "assay_type": "biochemical", "protocol": "To test the bioorthogonality of the hydroamination reaction, in vitro protein labeling experiments were performed. Fluorophore-conjugated hydroxylamine 13 was first assembled from 6-carboxytetramethylrhodamine and hydroxylamine 12, which was in turn synthesized by nucleophilic displacement of iodide 11 with N-methylhydroxylamine hydrochloride (FIG. 4A). […] With both reaction components in hand, cyclooctyne-functionalized lysozyme 15 was treated with hydroxylamine 13 (0-200 μM) in PBS for 2 hours and analyzed by in-gel fluorescence (FIG. 4C). Labeling occurred in a concentration-dependent manner, and labeling was saturated at 100 μM hydroxylamine. […]\nLysozyme (CAS 12650-88-3, 50 mg/mL in deionized H2O) was diluted into phosphate-buffered saline (PBS, pH 7.4) to a final concentration of 10 mg/mL. […] The concentration of lysozyme was determined by A280 measurement in denaturing buffer (pH 7.0, 6 M guanidinium, 30 mM MOPS) on a UV-vis spectrophotometer. […]\nA solution of lysozyme-COT 15 (5.0 μL, 0.15 mg/mL) was aliquoted into 6 samples. […] In-gel fluorescence was imaged with a Typhoon™ FLA 9500 (GE) at 532 nm with a photomultiplier tube (PMT) setting of 500 V. The experiment was carried out in triplicate (FIG. 8).\nA solution of lysozyme-COT 15 (5.0 μL, 0.15 mg/mL) was aliquoted each into 6 samples. […] Samples were snap frozen under liquid nitrogen until all samples were ready to be loaded on the gel. […]"}
{"smiles": "CN(O)CCOCCNC(=O)c1ccc2c(c1)C1(OC2=O)c2ccc(N(C)C)cc2Oc2cc(N(C)C)ccc21", "note": "[compound 13, 3′,6′-bis(dimethylamino)-N-(2-(2-(hydroxy(methyl)amino)ethoxy)ethyl)-3-oxo-3H-spiro[isobenzofuran-1,9′-xanthene]-6-carboxamide]", "values": [{"measurement": "time to in-gel fluorescence signal saturation", "setting": "200 μM 13, quenched with N,N-diethylhydroxylamine (20 mM)", "result": "≤ 1", "unit": "h"}, {"measurement": "hydroxylamine concentration at which labeling was saturated", "setting": "lysozyme-COT 15, 0-200 μM 13, PBS, 2 hours, in-gel fluorescence", "result": 100, "unit": "µM"}]}
